From article PMC5601738, “Facile total synthesis of lysicamine and the anticancer activities of the Ru^II, Rh^III, Mn^II and Zn^II complexes of lysicamine” (Oncotarget, 2017)

Legend:
HepG2 cells = assay: Uptake of metal complexes in HepG2 cells (ICP-MS); assay type: cell-based, human; details: HepG2, 2 at 7.0 μM, 3 at […], 8 h
pBR322 plasmid DNA = assay: Agarose gel electrophoresis assay with pBR322 plasmid DNA; assay type: biochemical; details: pBR322 0.5 μg/μL, TBE buffer pH=8.5, 10 to 100 μM
Description: The DNA cleavage activity of 2, 3 and LY were tested by agarose gel electrophoresis assay using pBR322 plasmid DNA (0.5 μg/μL) in TBE buffer (pH=8.5). […] In contrast, under the same experimental conditions, when the concentration of 2 increased from 10 μM to 50 μM, the mobility of supercoiled DNA (form I) was reduced, but the relaxed form (form II) was not observed. When the concentration of 2 increased further to 70 μM, the form II DNA appeared. Almost all supercoiled DNA (form I) changed to relaxed DNA (form II) when the concentration of 2 reached 90 and 100 μM.
RT-qPCR was performed. The threshold cycle (Ct) values approval no. SCXK 2014-0002 and SYXK 2014-0003), […]
were housed at a sterile environment with conditions of […]
than 3 days before used. Complexes and LYwere all […]
is limited in 1% in final working solutions. KM mice. The large concentration of 2 in 10% (v/v) […]
ct-DNA CD spectrum as control.
The HepG2 xenograft mice were induced by
37 °C in the dark for 4 h.
The percent weight loss or gain was calculated […]
imaging system under a UV-Vis transilluminator.. Percent tumour growth inhibition after initiation of treatment with 2 and cisplatin were calculated by TGI= […]
initial for control group).
Animals were supplied by Guangxi Medical
University Laboratory Animal Centre (Guangxi, China, […]

caspase-9 in HepG2 cells = assay: Activated caspase-9 by flow cytometry; details: HepG2, at IC50, 24 h; control […]
Description: (§1) After treated, the cells were collected, and suspended in h at 37 °C in 5% CO2 incubator. The cells were harvested
(§2) with annexin V-FITC and PI for 1 h at room temperature cytometer equipped. The results were represented as the
(§3) in the dark and immediately analyzed by flow cytometry. percent change on the activity comparing with the control.
(§4) Caspase- 3, -8 and -9 activity determinations by our previously report [3].

[1] = system: apoptosis associated proteins in HepG2 cells; assay: Western blot of apoptosis-related proteins; details: HepG2, 24 h, various concentrations
caspase-8 in HepG2 cells = assay: Activated caspase-8 by flow cytometry; details: HepG2, at IC50, 24 h; control 2.1 %
Description: as §1, §2, §3, §4

Structure (SMILES): COc1cc2ccnc3c2c(c1OC)-c1ccccc1C3=O.COc1cc2ccnc3c2c(c1OC)-c1ccccc1C3=O.COc1cc2ccnc3c2c(c1OC)-c1ccccc1C3=O.ClC(Cl)Cl.ClC(Cl)Cl.ClC(Cl)Cl.[Mn+2].[O-][Cl+3]([O-])([O-])[O-].[O-][Cl+3]([O-])([O-])[O-] [Complex 3, [Mn(LY)3](ClO4)2·3CHCl3]
- distribution of the metal (Rh or Mn) in mitochondrial vs nuclear fraction (HepG2 cells): higher in the mitochondrial fraction than in the nuclear fraction
- DNA cleavage activity on supercoiled pBR322 DNA (pBR322 plasmid DNA): cleavage of supercoiled DNA was still little
- proportion of activated caspase-9 cells (caspase-9 in HepG2 cells): 17.0%
- expression of Bax, Apaf-1 and cytochrome c [1]: increased
- expression of C-myc, Bcl-xl and Bcl-2 [1]: decreased
- proportion of activated caspase-8 cells (caspase-8 in HepG2 cells): 12.3%
